Results: patent US10336761B2, “TGFβ receptor antagonist” (BRISTOL-MYERS SQUIBB COMPANY, priority 2015, dated 2019)

The molecules below were run against HIS-TGFβR1 T204D (Homo sapiens (Human), UniProt P36897, T204D) (assay: HTRF probe-displacement assay, HIS-TGFβR1 T204D). Conditions: 1 hour at room temperature.
Type: binding

Sequence of HIS-TGFβR1 T204D (P36897 34-503 T204D): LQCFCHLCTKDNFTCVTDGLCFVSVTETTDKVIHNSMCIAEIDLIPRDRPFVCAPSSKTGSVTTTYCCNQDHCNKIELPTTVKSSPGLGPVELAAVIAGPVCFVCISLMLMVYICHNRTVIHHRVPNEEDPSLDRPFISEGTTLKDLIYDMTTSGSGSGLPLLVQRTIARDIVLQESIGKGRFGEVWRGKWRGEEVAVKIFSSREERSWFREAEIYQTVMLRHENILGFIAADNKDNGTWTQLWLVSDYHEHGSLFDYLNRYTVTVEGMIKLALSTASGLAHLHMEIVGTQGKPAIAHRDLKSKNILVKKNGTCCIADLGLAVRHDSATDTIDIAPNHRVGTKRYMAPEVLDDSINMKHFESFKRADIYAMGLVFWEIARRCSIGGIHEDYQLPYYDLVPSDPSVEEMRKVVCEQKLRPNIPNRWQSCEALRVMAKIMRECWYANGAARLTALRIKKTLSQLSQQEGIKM

Compound | IC50
O=C(NCCN1CCCC1)c1cnccc1Nc1nc(-c2cccc(C(F)(F)F)n2)nn2cccc12 [Example 170, N-[2-(pyrrolidin-1-yl)ethyl]-4-({2-[6-(trifluoromethyl)pyridin-2-yl]pyrrolo[2,1-f][1,2,4]triazin-4-yl}amino)pyridine-3-carboxamide] | 17 nM
COc1cccc(-c2nc(Nc3ccncc3F)c3c(CCN4CCC(N)CC4)ccn3n2)n1 [Example 114, N-{5-[2-(4-aminopiperidin-1-yl)ethyl]-2-(6-methoxypyridin-2-yl)pyrrolo[2,1-f][1,2,4]triazin-4-yl}-3-fluoropyridin-4-amine] | 260 nM
Fc1cnccc1Nc1nc(-c2cccc(C(F)(F)F)n2)nn2cccc12 [Example 84, 3-fluoro-N-{2-[6-(trifluoromethyl)pyridin-2-yl]pyrrolo[2,1-f][1,2,4]triazin-4-yl}pyridin-4-amine] | 3.7 nM
COc1cccc(-c2nc(Nc3ccnc(NCCN4CCC(F)(F)CC4)c3)c3cccn3n2)n1 [Example 34, 2-N-[2-(4,4-difluoropiperidin-1-yl)ethyl]-4-N-[2-(6-methoxypyridin-2-yl)pyrrolo[2,1-f][1,2,4]triazin-4-yl]pyridine-2,4-diamine] | 480 nM
O=C(CN1CC[C@@H](O)C1)Nc1cc(Nc2nc(-c3cccc(C(F)(F)F)n3)nn3cccc23)ccn1 [Example 327, 2-[(3R)-3-hydroxypyrrolidin-1-yl]-N-[4-({2-[6-(trifluoromethyl)pyridin-2-yl]pyrrolo[2,1-f][1,2,4]triazin-4-yl}amino)pyridin-2-yl]acetamide] | 0.3 nM
CC(O)CCNCc1ccn2nc(-c3ccccn3)nc(Nc3ccncc3F)c12 (stereo not shown) [Example 274, 4-[({4-[(3-fluoropyridin-4-yl)amino]-2-(pyridin-2-yl)pyrrolo[2,1-f][1,2,4]triazin-5-yl}methyl)amino]butan-2-ol] | 0.52 nM
COc1cccc(-c2nc(Nc3ccncc3F)c3cc(CN4CCC(F)(F)CC4)cn3n2)n1 [Example 40, N-{6-[(4,4-difluoropiperidin-1-yl)methyl]-2-(6-methoxypyridin-2-yl)pyrrolo[2,1-f][1,2,4]triazin-4-yl}-3-fluoropyridin-4-amine] | 230 nM
O=C(CN1CCCCC1)Nc1cc(Nc2nc(-c3cccc(C(F)(F)F)n3)nn3cccc23)ccn1 [Example 329, 2-(piperidin-1-yl)-N-[4-({2-[6-(trifluoromethyl)pyridin-2-yl]pyrrolo[2,1-f][1,2,4]triazin-4-yl}amino)pyridin-2-yl]acetamide] | 1.7 nM
COc1cccc(-c2nc(Nc3ccncc3F)c3c(C(O)CO)ccn3n2)n1 (stereo not shown) [Example 28, 1-{4-[(3-fluoropyridin-4-yl)amino]-2-(6-methoxypyridin-2-yl)pyrrolo[2,1-f][1,2,4]triazin-5-yl}ethane-1,2-diol] | 16 nM
Cc1cnc(CNCc2ccn3nc(-c4ccccn4)nc(Nc4ccncc4F)c23)cn1 [Example 305, 3-fluoro-N-[5-({[(5-methylpyrazin-2-yl)methyl]amino}methyl)-2-(pyridin-2-yl)pyrrolo[2,1-f][1,2,4]triazin-4-yl]pyridin-4-amine] | 2.6 nM
Clc1cnccc1Nc1nc(-c2ccccn2)nn2cccc12 [Example 54, 3-chloro-N-[2-(pyridin-2-yl)pyrrolo[2,1-f][1,2,4]triazin-4-yl]pyridin-4-amine] | 1.6 nM
OCC(CO)NCc1ccn2nc(-c3ccccn3)nc(Nc3ccncc3F)c12 [Example 264, 2-[({4-[(3-fluoropyridin-4-yl)amino]-2-(pyridin-2-yl)pyrrolo[2,1-f][1,2,4]triazin-5-yl}methyl)amino]propane-1,3-diol] | 1.7 nM
O=C(NCc1nccs1)c1cnccc1Nc1nc(-c2cccc(C(F)F)n2)nn2cccc12 [Example 183, 4-({2-[6-(difluoromethyl)pyridin-2-yl]pyrrolo[2,1-f][1,2,4]triazin-4-yl}amino)-N-(1,3-thiazol-2-ylmethyl)pyridine-3-carboxamide] | 44 nM
Fc1cnccc1Nc1nc(-c2nc(C(F)(F)F)cs2)nn2cccc12 [Example 17, N-(3-fluoropyridin-4-yl)-2-(4-(trifluoromethyl)thiazol-2-yl)pyrrolo[2,1-f][1,2,4]triazin-4-amine] | 0.72 nM
Cc1cccc(-c2nc(Nc3ccncc3C(=O)NCCCO)c3cccn3n2)n1 [Example 159, N-(3-hydroxypropyl)-4-{[2-(6-methylpyridin-2-yl)pyrrolo[2,1-f][1,2,4]triazin-4-yl]amino}pyridine-3-carboxamide] | 4.8 nM

Each molecule was assayed against GST tagged wild type TGFβR1 (Homo sapiens (Human), UniProt P36897) (assay: HTRF probe-displacement assay, GST tagged wild type TGFβR1). Conditions: GST tagged wild type proteins were used instead of HIS-tagged proteins.
Type: binding
Protocol: Compounds were dissolved at 10 mM in dimethylsulfoxide (DMSO) and evaluated at eleven concentrations. IC50 values were derived by non-linear regression analysis.

Sequence of GST tagged wild type TGFβR1 (P36897 34-503): as the sequence (P36897 34-503 T204D) above, with D171T counted along it

Compound | IC50
CN1CCN(Cc2ccn3nc(-c4cccc(C(F)F)n4)nc(Nc4ccncc4F)c23)CC1 [Example 122, N-{2-[6-(difluoromethyl)pyridin-2-yl]-5-[(4-methylpiperazin-1-yl)methyl]pyrrolo[2,1-f][1,2,4]triazin-4-yl}-3-fluoropyridin-4-amine] | 6 nM
Cc1ccnc(-c2nc(Nc3ccncc3F)c3cccn3n2)c1 [Example 62, 3-fluoro-N-[2-(4-methylpyridin-2-yl)pyrrolo[2,1-f][1,2,4]triazin-4-yl]pyridin-4-amine] | 1700 nM
Cc1nc(-c2nc(Nc3ccncc3F)c3cccn3n2)ccc1F [Example 74, 3-fluoro-N-[2-(5-fluoro-6-methylpyridin-2-yl)pyrrolo[2,1-f][1,2,4]triazin-4-yl]pyridin-4-amine] | 6.1 nM
O=C(NCCN1CCS(=O)(=O)CC1)c1cnccc1Nc1nc(-c2ccccn2)nn2cccc12 [Example 147, N-[2-(1,1-dioxo-1,4-thiomorpholin-4-yl)ethyl]-4-{[2-(pyridin-2-yl)pyrrolo[2,1-f][1,2,4]triazin-4-yl]amino}pyridine-3-carboxamide] | 2600 nM
